From ChEMBL document CHEMBL3822445, “Histone demethylating agents as potential S-adenosyl-l-methionine-competitors” (Medchemcomm, 2016)
Active and inactive are the calls of the source. The rule behind the calls is not given here.

Columns and labels:
[1] = molecular target: T1, Histone-lysine N-methyltransferase EHMT2 (Homo sapiens) (UniProt Q96KQ7); experiment: Inhibition of G9a in human MCF7 nuclear extracts assessed as reduction in H3K27 levels at 15 uM after 48 hrs; type: cell-based
T1 sequence (whole entry): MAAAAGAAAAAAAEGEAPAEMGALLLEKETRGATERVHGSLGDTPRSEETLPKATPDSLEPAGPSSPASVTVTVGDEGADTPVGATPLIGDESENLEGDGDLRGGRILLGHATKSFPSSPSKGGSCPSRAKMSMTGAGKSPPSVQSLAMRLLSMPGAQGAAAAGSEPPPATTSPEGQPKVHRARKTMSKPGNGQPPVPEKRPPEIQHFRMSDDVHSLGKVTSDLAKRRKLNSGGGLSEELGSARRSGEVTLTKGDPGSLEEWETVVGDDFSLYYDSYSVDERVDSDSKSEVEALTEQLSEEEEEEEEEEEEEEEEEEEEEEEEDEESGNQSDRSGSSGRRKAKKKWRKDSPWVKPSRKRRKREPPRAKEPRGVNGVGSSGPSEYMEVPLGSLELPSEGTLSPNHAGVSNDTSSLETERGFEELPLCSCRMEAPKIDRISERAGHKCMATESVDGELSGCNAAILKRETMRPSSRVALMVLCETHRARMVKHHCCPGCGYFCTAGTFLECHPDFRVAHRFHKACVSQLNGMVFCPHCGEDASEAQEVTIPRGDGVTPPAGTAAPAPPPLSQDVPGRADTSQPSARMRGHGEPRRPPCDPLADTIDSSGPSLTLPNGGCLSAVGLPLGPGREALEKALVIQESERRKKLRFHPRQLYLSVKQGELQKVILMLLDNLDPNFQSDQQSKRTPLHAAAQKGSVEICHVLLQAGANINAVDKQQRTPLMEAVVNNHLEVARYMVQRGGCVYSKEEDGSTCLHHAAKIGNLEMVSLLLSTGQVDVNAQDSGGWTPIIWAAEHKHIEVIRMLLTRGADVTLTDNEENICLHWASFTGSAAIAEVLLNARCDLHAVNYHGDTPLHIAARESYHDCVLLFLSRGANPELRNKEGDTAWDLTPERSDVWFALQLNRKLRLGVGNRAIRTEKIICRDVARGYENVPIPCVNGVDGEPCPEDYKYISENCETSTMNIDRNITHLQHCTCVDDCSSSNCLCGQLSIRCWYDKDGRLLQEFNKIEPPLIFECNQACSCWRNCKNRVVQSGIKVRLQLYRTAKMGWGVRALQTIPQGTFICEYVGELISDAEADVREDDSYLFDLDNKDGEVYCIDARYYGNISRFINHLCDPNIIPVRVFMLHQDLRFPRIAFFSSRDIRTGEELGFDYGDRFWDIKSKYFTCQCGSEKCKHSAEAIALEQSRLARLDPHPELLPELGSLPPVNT

MCF7 [2] = experiment: Antiproliferative activity against human MCF7 cells after 48 to 72 hrs by MTT assay; type: functional, cell-based
MCF7 [3] = experiment: Induction of apoptosis in human MCF7 cells assessed as late apoptotic cells at 15 uM after 72 hrs by AnnexinV-FITC staining based flow cytometry (reference value: 11.8 +/- 2.2 %); type: functional
MCF7 [4] = experiment: Induction of apoptosis in human MCF7 cells assessed as necrotic cells at 15 uM after 72 hrs by AnnexinV-FITC staining based flow cytometry (reference value: 7.6 +/- 1 %); type: functional
[5] = molecular target: T1, Histone-lysine N-methyltransferase EHMT2 (Homo sapiens); experiment: Inhibition of G9a in human MCF7 nuclear extracts assessed as reduction in H3K9 levels at 15 uM after 48 hrs; type: cell-based
[6] = Antiproliferative activity against human Ovarian cancer DC#110 cells assessed as cell survival at 20 uM after 72 hrs by MTT assay relative to control; type: functional; settings: read-out: Survival
MCF7 [7] = experiment: Inhibition of DNA methylation in human MCF7 cells assessed as reduction in H3K9me3 levels at 15 uM after 48 hrs by Western blot analysis; type: cell-based
[8] = Antiproliferative activity against human Ovarian cancer LA#83 cells assessed as cell survival at 20 uM after 72 hrs by MTT assay relative to control; type: functional; settings: read-out: Survival
MCF7 [9] = experiment: Inhibition of DNA methylation in human MCF7 cells assessed as decrease in methylation of RARbeta DNA by qPCR method; type: cell-based
[10] = Antiproliferative activity against human H460 cells after 48 to 72 hrs by MTT assay; type: functional, cell-based; settings: NCI-H460
[11] = Antiproliferative activity against human Ovarian cancer DC#83 cells assessed as cell survival at 20 uM after 72 hrs by MTT assay relative to control; type: functional; settings: read-out: Survival
MCF7 [12] = experiment: Induction of apoptosis in human MCF7 cells assessed as early apoptotic cells at 15 uM after 72 hrs by AnnexinV-FITC staining based flow cytometry (reference value: 20.1 +/- 7.3 %); type: functional
MCF7 [13] = experiment: Inhibition of DNA methylation in human MCF7 cells assessed as reduction in H3K27me3 levels at 15 uM after 48 hrs by Western blot analysis; type: cell-based
MSTO-211H = experiment: Antiproliferative activity against human MSTO-211H cells after 48 to 72 hrs by MTT assay; type: functional, cell-based
MCF7 [14] = experiment: Induction of apoptosis in human MCF7 cells assessed as early apoptotic cells at 15 uM after 48 hrs by AnnexinV-FITC staining based flow cytometry (reference value: 7.8 +/- 5.3 %); type: functional
MCF7 [15] = experiment: Induction of apoptosis in human MCF7 cells assessed as late apoptotic cells at 15 uM after 48 hrs by AnnexinV-FITC staining based flow cytometry (reference value: 7.6 +/- 5.9 %); type: functional
MCF7 [16] = experiment: Inhibition of DNA methylation in human MCF7 cells assessed as decrease in 5-methylcytosine level by ELISA; type: cell-based
MCF7 [17] = experiment: Induction of apoptosis in human MCF7 cells assessed as viable cells at 15 uM after 48 hrs by AnnexinV-FITC staining based flow cytometry (reference value: 74.4 +/- 9.1 %); type: functional; settings: MCF7, 48 h, read-out: Activity
[18] = Antiproliferative activity against human Ovarian cancer LA#110 cells assessed as cell survival at 20 uM after 72 hrs by MTT assay relative to control; type: functional; settings: read-out: Survival
MCF7 [19] = experiment: Induction of apoptosis in human MCF7 cells assessed as necrotic cells at 15 uM after 48 hrs by AnnexinV-FITC staining based flow cytometry (reference value: 10.2 +/- 1.9 %); type: functional
MCF7 [20] = experiment: Cell cycle arrest in human MCF7 cells assessed as accumulation at G0/G1 phase at 15 uM after 24 hrs by flow cytometry relative to control; type: functional
MCF7 [21] = experiment: Induction of apoptosis in human MCF7 cells assessed as viable cells at 15 uM after 72 hrs by AnnexinV-FITC staining based flow cytometry (reference value: 60.5 +/- 6 %); type: functional; settings: MCF7, 72 h, read-out: Activity
MCF7 [22] = experiment: Cell cycle arrest in human MCF7 cells assessed as accumulation at G2/M phase at 15 uM after 72 hrs by flow cytometry relative to control; type: functional
MCF7 [23] = experiment: Inhibition of DNA methylation in human MCF7 cells assessed as melting temperature of RARbeta amplicon DNA by qPCR method (reference value: 77 degC); type: cell-based
MCF7 [24] = experiment: Inhibition of DNA methylation in human MCF7 cells assessed as reduction in H3K9me3 levels at 0.5 to 1 uM after 48 hrs by Western blot analysis; type: cell-based
MCF7 [25] = experiment: Inhibition of DNA methylation in human MCF7 cells assessed as reduction in H3K9me3 levels at 3 uM after 48 hrs by Western blot analysis; type: cell-based
MCF7 [26] = experiment: Inhibition of DNA methylation in human MCF7 cells assessed as reduction in H3K27me3 levels at 3 uM after 48 hrs by Western blot analysis; type: cell-based

Row | Compound | inhibition [1] | IC50 (MCF7 [2]) | Activity (MCF7 [3]) | Activity (MCF7 [4]) | inhibition [5] | viability at 20 µM [6] | inhibition (MCF7 [7]) | viability at 20 µM [8] | IC50 [10] | viability at 20 µM [11] | Activity (MCF7 [12]) | inhibition (MCF7 [13]) | IC50 (MSTO-211H) | Activity (MCF7 [14]) | Activity (MCF7 [15]) | inhibition (MCF7 [16]) | viability at 15 µM (MCF7 [17]) | viability at 20 µM [18] | Activity (MCF7 [19]) | viability at 15 µM (MCF7 [21]) | further results
1 | CCCCN1C(=O)[C@H]2Cc3c([nH]c4ccccc34)CN2C1=O | inactive | 32.3 µM | 12.1% | 7.2% | Active | 86.4% | 50% | 64.7% | > 20 µM | 91.2% | 19.5% | 60% | > 20 µM | 12.2% | 11% | Active | 70.4% | 78% | 6.4% | 61.2% | inhibition (MCF7 [9]): Active; Activity (MCF7 [20]): 3%
2 | CN1CCN(C(=O)[C@H]2Cc3c([nH]c4ccccc34)[C@@H]3N(C)c4ccccc4C(=O)N23)CC1 | Active | 34.8 µM | 15.8% | 6.2% | Active | 87.7% | 70% | 77.3% | 9.05 µM | 84.2% | 23.3% | 30% | 6.6 µM | 13.6% | 12.2% | Active | 64.6% | 56.7% | 9.6% | 54.7% | inhibition (MCF7 [9]): Active; Activity (MCF7 [22]): Active
3 | CCCCN1C(=O)[C@H]2Cc3c(n(CO)c4ccccc34)CN2C1=O | Active | 30.7 µM | 15.2% | 7.2% | Active | 82.2% | 40% | 67.8% | > 20 µM | 101% | 25.5% | 20% | > 20 µM | 8.3% | 12.1% | Active | 71.1% | 56% | 8.5% | 52.1% | inhibition (MCF7 [9]): Active; Activity (MCF7 [20]): 3%
4 | CN1c2ccccc2C(=O)N2CCc3c([nH]c4ccccc34)[C@H]21 | inactive | 5.4 µM | 33.2% | 8.1% | Active | 43.1% | 100% | 53.2% | 0.26 µM | 65.5% | 16.8% | 60% | 0.54 µM | 11.9% | 27.6% | Active | 51.5% | 26.8% | 9% | 41.9% | Tm (MCF7 [23]): 75.5 °C; Activity (MCF7 [22]): 39.3%
5 | Nc1nccc2c1ncn2[C@@H]1C=C(CO)[C@@H](O)[C@H]1O | Active | – | 24.1% | 5.9% | Active | 13.6% | – | 42.5% | – | 63.5% | 17.4% | – | – | 12.8% | 16.1% | – | 32.2% | 30.4% | 7.8% | 52.6% | inhibition (MCF7 [24]): inactive
6 | CCCCN1C(=O)[C@@H]2Cc3c(n(CO)c4ccccc34)CN2C1=O | Active | 38.7 µM | 13.7% | 7.1% | Active | 93.8% | 50% | 91.8% | > 20 µM | 96% | 20.6% | 40% | > 20 µM | 13.1% | 13.5% | Active | 69.4% | 71.8% | 4.1% | 58.6% | inhibition (MCF7 [9]): Active; Activity (MCF7 [20]): 3%
7 | Cc1ccc(-c2cn3c(n2)sc2ccccc23)cc1 | inactive | 30.4 µM | 21% | 4.8% | Active | 80.1% | inactive | 70.2% | > 20 µM | 90.3% | 29% | inactive | > 20 µM | 18.7% | 11.8% | inactive | 61.4% | 77.1% | 8.1% | 45.2% | inhibition (MCF7 [9]): inactive; Activity (MCF7 [22]): Active
8 | COc1cc2nc(N3CCCN(C)CC3)nc(NC3CCN(Cc4ccccc4)CC3)c2cc1OC | Active | – | 14.3% | 6.3% | Active | 73% | – | 57% | – | 86.2% | 13.5% | – | – | 12.6% | 13.8% | – | 67.2% | 50.2% | 6.3% | 65.8% | inhibition (MCF7 [25]): 80%; inhibition (MCF7 [26]): 25%
